pIC50: −log10 of the molar value.
Tests used:
db/db mice = test: Postprandial blood glucose level measurement after oral starch load; type: in vivo; conditions: for glucose AUC / reduction of glucose AUC of diabetic mice: oral starch 2 g/kg; for reduction of glucose AUC of diabetic mice: vs model
Description: db/db mice and C57BL/6J mice were purchased f0rom Beijing Zhishan Health Medical Research Institute. The animal testing procedure was approved by Beijing Huayuan Times Technology Co., Ltd Ethics Committee on the Management and Welfare of Laboratory Animals. (Ethics review batch number: HYSD2023-04) and strictly follows the local and national codes of ethics. All mice were placed in a control chamber at 25 °C and 60% relative humidity with a light/dark period of 12/12 h. During this period, all mice had free access to normal feed and water. […] All mice were given starch (2 g/kg) orally 60 min after treatment. Blood samples were taken from the caudal vein and blood glucose was measured after 0, 30, 60, and 120 min. The area under the curve (AUC) was calculated using the trapezoidal rule.

α-amylase = target: T1, α-amylase (Sus scrofa, UniProt P00690); test: In vitro α-amylase activity assay (G3-CNP, absorbance 405 nm); type: biochemical, porcine
T1 construct: α-amylase (EC 232-565-6, powder, ≥5 units/mg solid) isolated from porcine pancreas; purchased Sigma-Aldrich Co; host or cells: porcine pancreas
T1 sequence (P00690 16-511): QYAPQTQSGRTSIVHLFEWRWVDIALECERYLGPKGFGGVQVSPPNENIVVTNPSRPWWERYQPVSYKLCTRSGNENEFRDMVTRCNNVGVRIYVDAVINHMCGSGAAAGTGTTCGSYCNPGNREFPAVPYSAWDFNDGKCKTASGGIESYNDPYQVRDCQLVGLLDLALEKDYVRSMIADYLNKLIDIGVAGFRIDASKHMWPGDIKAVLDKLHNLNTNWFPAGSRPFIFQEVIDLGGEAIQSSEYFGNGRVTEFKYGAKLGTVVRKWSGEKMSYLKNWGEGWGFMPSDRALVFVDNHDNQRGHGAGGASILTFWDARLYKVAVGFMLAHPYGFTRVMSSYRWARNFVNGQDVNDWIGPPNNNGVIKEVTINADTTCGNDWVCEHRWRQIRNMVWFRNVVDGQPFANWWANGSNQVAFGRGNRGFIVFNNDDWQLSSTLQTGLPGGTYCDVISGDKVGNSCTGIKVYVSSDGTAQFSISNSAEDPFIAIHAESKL
Description: (§1) The other reagents used in this experiment are analytically pure reagents purchased from Sigma-Aldrich Co. (St. Louis, MI, USA) unless specified otherwise.
The in vitro […] activity assay was determined using spectrophotometry, as previously reported, with only minor modifications. A total of 5 U/mL of α-amylase and the appropriate quantity of 2-chloro-4-nitrophenyl α-D-maltotrioside (G3-CNP) were produced. […] Gradient dilution with a phosphate-buffered solution was used to create sample solutions of various concentrations. First, different concentrations of compound (10 μL), an enzyme solution (40 μL), and potassium phosphate buffer (100 μL) were pre-incubated in 96-well plates at 37 °C for 10 min.
(§2) The enzymatic inhibitory activity of the tested compounds was calculated using the following formula: Inhibition %=[(Abs control−Abs sample)/Abs control]×100
(§3) The IC50 values of the tested compounds were calculated using nonlinear fitting (logit method).

α-glucosidase = target: T2, α-glucosidase (Saccharomyces cerevisiae, UniProt P53341); test: biochemical
T2 construct: purchased Sigma-Aldrich Co
T2 sequence (P53341 whole entry): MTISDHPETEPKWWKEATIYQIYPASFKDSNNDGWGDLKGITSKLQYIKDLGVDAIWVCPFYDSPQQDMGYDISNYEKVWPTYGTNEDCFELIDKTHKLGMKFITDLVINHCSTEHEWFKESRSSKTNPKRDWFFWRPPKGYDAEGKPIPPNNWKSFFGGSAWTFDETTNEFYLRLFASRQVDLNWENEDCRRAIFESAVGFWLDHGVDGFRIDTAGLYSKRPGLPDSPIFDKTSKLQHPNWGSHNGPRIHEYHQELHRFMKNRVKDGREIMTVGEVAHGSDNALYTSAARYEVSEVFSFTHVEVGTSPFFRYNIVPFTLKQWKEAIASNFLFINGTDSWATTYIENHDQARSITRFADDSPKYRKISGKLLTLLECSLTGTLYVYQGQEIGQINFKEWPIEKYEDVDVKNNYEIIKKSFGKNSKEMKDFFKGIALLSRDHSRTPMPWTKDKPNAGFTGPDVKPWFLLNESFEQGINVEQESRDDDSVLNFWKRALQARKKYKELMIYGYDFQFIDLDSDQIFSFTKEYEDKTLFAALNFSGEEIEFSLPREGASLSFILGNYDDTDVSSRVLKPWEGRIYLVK
Description: as §1
The in vitro α-glucosidase activity assay was determined using spectrophotometry, as previously reported, with only minor modifications. In phosphate buffer with a pH of 6.8, 0.5 U/mL of α-glucosidase and the appropriate quantity of p-nitrophenyl-D-glucopyranoside (pNGP) were produced. […] Gradient dilution with a phosphate-buffered solution was used to create sample solutions of various concentrations. First, different concentrations of compound (10 μL), an enzyme solution (40 μL), and potassium phosphate buffer (100 μL) were pre-incubated in 96-well plates at 37 °C for 10 min.
as §2, §3

For `O=c1c(O)c(-c2ccc(O)c(O)c2)oc2cc(O[C@@H]3O[C@H](CO)[C@@H](O)[C@H](O)[C@H]3O)cc(O)c12` [Quercimeritrin], the “glucose AUC” value (db/db mice; 100 mg/kg) was 43.7 mmol·h/L, the “reduction of glucose AUC of diabetic mice” value (db/db mice; 100 mg/kg) was 19.0% and the “glucose AUC” value (db/db mice; 200 mg/kg) was 40.7 mmol·h/L. For the same compound, the “reduction of glucose AUC of diabetic mice” value (db/db mice; 200 mg/kg) was 24.5%, the “postprandial blood glucose level” value (db/db mice; HD group 200 mg/kg, oral starch) was “significantly lower than that of the control and acarbose groups” and the pIC50 (α-amylase) was under 3.60. It also gave an inhibition at 500 µM (α-amylase; at 500 µM, read-out: α-Amylase inhibition) of 57%, a pIC50 (α-glucosidase) of 4.10 and an inhibition at 500 µM (α-glucosidase; read-out: α-Glucosidase inhibition) of 92%.
